Laboratory results from patent publication US20260250318A1, “COMPOSITIONS AND METHODS FOR CROSSING THE BLOOD BRAIN BARRIER” (VOYAGER THERAPEUTICS, INC., priority 2022, published 2026).
Non-standard residues stand in square brackets, D forms with d. Residues, ends and D or L forms follow the SMILES beside them. *: point of attachment. Biotin = O=C1N[C@H]2[C@H](CS[C@H]2CCCCC(=O)*)N1; pS = N[C@@H](COP(=O)(O)O)C(=O)O

Columns and labels:
ALPL [1] = biological target: T1, ALPL (Homo sapiens, UniProt P05186); test: biochemical; type: binding; details: for binding to ALPL by ELISA: ALPL coated on wells
T1 sequence (P05186 18-501): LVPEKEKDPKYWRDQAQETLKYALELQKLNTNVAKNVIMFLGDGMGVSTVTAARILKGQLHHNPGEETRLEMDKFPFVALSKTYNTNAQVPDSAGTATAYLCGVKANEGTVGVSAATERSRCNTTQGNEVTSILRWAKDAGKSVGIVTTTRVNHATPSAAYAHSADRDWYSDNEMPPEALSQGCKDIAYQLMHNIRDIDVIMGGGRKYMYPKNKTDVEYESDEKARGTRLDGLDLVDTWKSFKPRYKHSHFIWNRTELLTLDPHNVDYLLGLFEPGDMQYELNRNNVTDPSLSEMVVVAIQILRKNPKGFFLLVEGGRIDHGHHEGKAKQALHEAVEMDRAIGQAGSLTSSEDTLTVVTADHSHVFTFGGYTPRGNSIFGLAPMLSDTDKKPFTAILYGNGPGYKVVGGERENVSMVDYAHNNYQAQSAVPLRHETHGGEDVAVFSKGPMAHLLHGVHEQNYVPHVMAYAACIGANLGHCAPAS
Source text: Binding of the phospho-peptides of SEQ ID NO: 4512 and 4513 along with their non-phosphorylated counterparts, […] (SEQ ID NO: 4500) and […]

His-tagged ALPL = biological target: T2, His-tagged ALPL (Homo sapiens, UniProt P05186); test: Bio Layer Interferometry (BLI)/Octet binding of peptides to ALPL; details: for binding to ALPL by BLI/Octet: ALPL 1.56 to 100 nM
T2 sequence (P05186 18-501): T1 sequence (P05186 18-501)
Source text: Binding of the phospho-peptides of SEQ ID NO: 4512 and SEQ ID NO: 4513 to ALPL was also investigated using Bio Layer Interferometry (BLI)/Octet.

ALPL [2] = biological target: T1, ALPL; test: SPR (Biacore 8K) binding of peptide ligands to ALPL; details: for binding to ALPL by SPR, his-tagged ALPL captured on chip: peptides 0 to 50 μM; for binding to ALPL by SPR, His-tagged ALPL captured on chip: 50 μM peptides or 250 nM capsids flowed over
Experimental: Binding and interaction between the peptides and the ALPL receptor were measured by Surface Plasmon Resonance (SPR) on a Biacore 8K instrument. The biotinylated peptides in Table 37 were captured on the streptavidin biosensor chip and 1000 nM of ALPL and buffer were passed over the peptides to monitor binding. […] His-tagged ALPL was then captured on the chip pre-immobilized with anti-His antibody, and 50 μM of the peptides in Table 37 or 250 nM of the AAV9 control capsid, the TTM-001 capsid variant (SEQ ID NO: 981), or the TTM-002 capsid variant (SEQ ID NO: 982) were flowed over the ALPL to check for binding. […] The longer peptides derived from TTM-002,
were also flowed over the his-tagged ALPL captured on the CM5 sensor chip pre-immobilized with anti-His antibody.
Binding and interaction between the phosho-peptides and the ALPL receptor were also measured by SPR. The biotinylated and phosphorylated peptides in Table 38 were captured on the streptavidin biosensor chip along with their non-phosphorylated counterparts, […] (SEQ ID NO: 4500) and […] (SEQ ID NO: 4503). ALPL and buffer were passed over the peptides to monitor binding. The concentration of ALPL used ranged from 0 to 500 nM (0 nM, 125 nM, 250 nM, and 500 nM).
In a second experiment, his-tagged ALPL was first captured on a CM5 sensor chip pre-immobilized with anti-His antibody. The phosphorylated peptides in Table 38 and their non-phosphorylated counterparts, […] (SEQ ID NO: 4500) and […] (SEQ ID NO: 4503) and buffer were flowed over the ALPL protein to monitor binding.

[3] = biological target: human ALPL (soluble protein used in the ELISA and SPR of Example 14) (human) (UniProt P05186); test: SPR (Biacore), antibody captured on the chip, 1.6 to 1000 nM of human ALPL flowed over

Molecule | EC50 (ALPL [1]) [µM] | binding to ALPL by ELISA (ALPL [1]) | Kd (His-tagged ALPL) [µM] | koff (His-tagged ALPL) [s⁻¹] | kon (His-tagged ALPL) [M⁻¹ s⁻¹] | binding to ALPL by BLI/Octet (His-tagged ALPL) | binding to ALPL by SPR, his-tagged ALPL captured on chip (ALPL [2]) | binding to ALPL by SPR, His-tagged ALPL captured on chip (ALPL [2]) | further results
NCCCC[C@H](NC(=O)[C@H](Cc1c[nH]cn1)NC(=O)[C@@H]1CCCN1C(=O)[C@H](COP(=O)(O)O)NC(=O)[C@H](CC(=O)O)NC(=O)[C@H](Cc1c[nH]cn1)NC(=O)CNC(=O)[C@H](CC(N)=O)NC(=O)[C@H](CO)NC(=O)CNC(=O)[C@H](CO)NC(=O)CNC(=O)CCCC[C@@H]1SC[C@@H]2NC(=O)N[C@@H]21)C(=O)N[C@@H](CO)C(=O)NCC(N)=O [SEQ ID NO: 4512] (Biotin-GSGSNGHD[pS]PHKSG-NH2) | 0.763 | dose-dependent binding to ALPL | 0.112 | 0.0026 | 23000 | demonstrated binding to ALPL | low signal with dose dependency | – | –
CC[C@H](C)[C@H](NC(=O)[C@@H](NC(=O)[C@H](CCCCN)NC(=O)[C@H](CO)NC(=O)CNC(=O)[C@H](CO)NC(=O)CNC(=O)CCCC[C@@H]1SC[C@@H]2NC(=O)N[C@@H]21)[C@@H](C)O)C(=O)N[C@@H](CC(N)=O)C(=O)NCC(=O)N[C@@H](Cc1c[nH]cn1)C(=O)N[C@@H](CC(=O)O)C(=O)N[C@@H](COP(=O)(O)O)C(=O)N1CCC[C@H]1C(=O)N[C@@H](Cc1c[nH]cn1)C(=O)N[C@@H](CCCCN)C(=O)N[C@@H](CO)C(=O)NCC(=O)N[C@@H](CCC(N)=O)C(=O)N[C@@H](CC(N)=O)C(=O)N[C@@H](CCC(N)=O)C(N)=O [SEQ ID NO: 4513] (Biotin-GSGSKTINGHD[pS]PHKSGQNQ-NH2) | 4.29 | dose-dependent binding to ALPL | 0.0207 | 0.00067 | 32000 | demonstrated binding to ALPL | low signal with dose dependency | – | binding to ALPL at a pH of 5.5 (His-tagged ALPL; pH 5.5): no binding was observed
GSGSLYYLSKTINGHDSPHKSGQNQQTLKF [longer peptide derived from TTM-002] | – | – | – | – | – | – | – | no binding to ALPL was observed | –
GSGSRLMNPLIDQYLYYLSKTINGHDSPHKSGQNQQTLKFSVAGPSNMAV [longer peptide derived from TTM-002] | – | – | – | – | – | – | – | no binding to ALPL was observed | –
Human Alkaline Phosphatase/ALPL Antibody, clone B4-78 (MAB1448-SP) | – | – | – | – | – | – | – | – | Kd [3]: 0.215 µM; koff [3]: 0.0015 s⁻¹; kon [3]: 6800 M⁻¹ s⁻¹
